Measurements taken from patent publication US10800789B2, “Antiviral compounds” (Gilead Pharmasset LLC, priority 2012, dated 2020).
pEC50: −log10 of the molar value. Like-named read-outs stand apart in the source and are kept apart here.

How the values were obtained:
[1] = system: NS5A chimeric genotype 1b Con1 replicon with genotype 3a S52 strain NS5A gene; assay: Replicon assay, genotype 3a NS5A chimera; type: cell-based, HCV; details: Hepatitis C virus; for EC50: read-out: 3a (s) (nM), genotype 3a NS5A chimeric replicon, stable replicon cells (s); for pEC50: read-out: 3a (s), (s), activity range
[2] = system: NS5A chimeric genotype 2a JFH-1 replicon with genotype 2a J6 strain NS5A gene (M31 present); assay: Replicon assay, genotype 2a J6 NS5A chimera; type: cell-based, HCV; details: Hepatitis C virus; for EC50: read-out: 2a J6 (t) (nM), genotype 2a J6 NS5A chimeric replicon (M31), transiently transfected (t) into Huh-Lunet cells; for pEC50: read-out: 2a J6 (t), transiently transfected (t) into Huh-Lunet cells, activity range
Protocol: (§1) Evaluation of Cell-Based Anti-HCV Activity:
(§2) Antiviral potency (EC50) was determined using a Renilla luciferase (RLuc)-based HCV replicon reporter assay. To perform the assay for genotype 1 and 2a JFH-1, stable HCV 1a RLuc replicon cells (harboring a dicistronic genotype 1a H77 replicon that encodes a RLuc reporter), stable HCV 1b RLuc replicon cells (harboring a dicistronic genotype 1b Con1 replicon that encodes a RLuc reporter), or stable HCV 2a JFH-1 Rluc replicon cells (harboring a dicistronic genotype 2a JFH-1 replicon that encodes a RLuc reporter; with L31 present in NS5A) were dispensed into 384-well plates for EC50 assays. To perform the assay for genotype 2a (with M31 present in NS5A) or 2b, NS5A chimeric genotype 2a JFH-1 replicons that encodes a RLuc-Neo reporter and either genotype 2a J6 strain NS5A gene or genotype 2b MD2b-1 strain NS5A gene (both with M31 present) respectively, were either transiently transfected (t) into Huh-Lunet cells or were established as stably replicating replicon cells (s) is provided. Either cells were dispensed into 384-well plates for EC50 assays. To perform the assay for genotype 3 and 4, NS5A chimeric genotype 1b Con1 replicons that encodes a Pi-RLuc reporter and either genotype 3a S52 strain NS5A gene or genotype 4a ED43 strain NS5A gene respectively, were transiently transfected (t) into Huh-Lunet cells, which were subsequently dispensed into 384-well plates. Compounds were dissolved in DMSO at a concentration of 10 mM and diluted in DMSO either manually or using an automated pipeting instrument. Serially 3-fold diluted compounds were either manually mixed with cell culture media and added to the seeded cells or directly added to the cells using an automated instrument. DMSO was used as a negative (solvent; no inhibition) control, and the protease inhibitor ITMN-191 was included at a concentration>100×EC50 as a positive control. 72 hours later, cells were lysed and Renilla luciferase activity quantified as recommended by the manufacturer (Promega-Madison, Wis.). Non-linear regression was performed to calculate EC50 values.

[3] = system: stable HCV 2a JFH-1 Rluc replicon cells (L31 present in NS5A); assay: Renilla luciferase HCV replicon reporter assay, genotype 2a JFH-1; type: cell-based; details: Hepatitis C virus; for EC50: read-out: 2a JFH (nM), genotype 2a JFH-1 replicon (L31 in NS5A), stable cells; for pEC50: read-out: 2a JFH, stable 2a JFH-1 Rluc replicon cells, L31 in NS5A, activity range
Protocol: as §1, §2

[4] = system: NS5A chimeric genotype 2a JFH-1 replicon with genotype 2b MD2b-1 strain NS5A gene (M31 present); assay: Replicon assay, genotype 2b NS5A chimera; type: cell-based, HCV; details: Hepatitis C virus; for pEC50: 2BS, read-out: 2b (s), stably replicating replicon cells (s), activity range; for EC50: read-out: 2b (s) (nM), genotype 2b MD2b-1 NS5A chimeric replicon (M31), stably replicating replicon cells (s)
Protocol: as §1, §2

[5] = system: NS5A chimeric genotype 1b Con1 replicon with genotype 4a ED43 strain NS5A gene; assay: Replicon assay, genotype 4a NS5A chimera; type: cell-based, HCV; details: Hepatitis C virus; for EC50: read-out: 4a (s) (nM), genotype 4a NS5A chimeric replicon, stable replicon cells (s); for pEC50: read-out: 4a (s), (s), activity range
[6] = system: stable HCV 1b RLuc replicon cells (dicistronic genotype 1b Con1 replicon); assay: Renilla luciferase HCV replicon reporter assay, genotype 1b; type: cell-based; details: Hepatitis C virus, 72 h, stable 1b Con1 RLuc replicon cells, 72 hours; read-out: 1b
Protocol: as §1, §2

[7] = system: stable HCV 1a RLuc replicon cells (dicistronic genotype 1a H77 replicon); assay: Renilla luciferase HCV replicon reporter assay, genotype 1a; type: cell-based; details: Hepatitis C virus, 72 h, stable 1a H77 RLuc replicon cells
Protocol: as §1, §2

Compound	EC50 [1]	pEC50 [1]	EC50 [2]	pEC50 [2]	EC50 [3]	pEC50 [3]	pEC50 [4]	EC50 [4]	EC50 [5]	pEC50 [5]	pEC50 [6]	pEC50 [7]	pEC50 ([7]; activity range)
COC(=O)N[C@H](C(=O)N1[C@H](c2ncc(-c3ccc4c(c3)COc3cc5c(ccc6nc([C@@H]7CC[C@H](C)N7C(=O)[C@@H](NC(=O)OC)C7CCOCC7)[nH]c65)cc3-4)[nH]2)C[C@@H]2CCC[C@@H]21)C(C)C [IY]	0.045 nM	> 10.00	0.047 nM	> 10.00	0.012 nM	> 10.00	> 10.00	0.069 nM	0.019 nM	> 10.00	10.52	10.64	> 10.00
COC(=O)N[C@@H](C)C(=O)N1[C@@H](C)CC[C@H]1c1nc2ccc3cc4c(cc3c2[nH]1)OCc1cc(-c2cnc([C@@H]3CC[C@H](C)N3C(=O)[C@@H](NC(=O)OC)C(C)C)[nH]2)ccc1-4 [HC]	0.105 nM	9.00 to 10.00	1.43 nM	7.36 to 9.00	0.014 nM	> 10.00	7.36 to 9.00	1.82 nM	0.014 nM	> 10.00	10.80	10.92	> 10.00
CC[C@H](C)[C@H](NC(=O)OC)C(=O)N1[C@H](c2nc3ccc4cc5c(cc4c3[nH]2)OCc2cc(-c3cnc([C@@H]4CC[C@H](C)N4C(=O)[C@@H](NC(=O)OC)C4CCOCC4)[nH]3)ccc2-5)C[C@@H]2CCC[C@@H]21 [IO]	0.293 nM	9.00 to 10.00	0.07 nM	> 10.00	0.033 nM	> 10.00	9.00 to 10.00	0.118 nM	0.03 nM	> 10.00	10.37	10.57	> 10.00
CC[C@H]1CC[C@@H](c2ncc(-c3ccc4c(c3)COc3cc5c(ccc6nc([C@@H]7C[C@@H]8CCC[C@@H]8N7C(=O)[C@@H](NC(=O)OC)C(C)C)[nH]c65)cc3-4)[nH]2)N1C(=O)[C@@H](NC(=O)OC)C1CCOCC1 [IN]	0.212 nM	9.00 to 10.00	0.044 nM	> 10.00	0.03 nM	> 10.00	9.00 to 10.00	0.109 nM	0.023 nM	> 10.00	10.55	10.68	> 10.00
CC[C@H]1CC[C@@H](c2nc3ccc4cc5c(cc4c3[nH]2)OCc2cc(-c3cnc([C@@H]4CC[C@H](C)N4C(=O)[C@@H](NC(=O)OC)[C@@H](C)OC)[nH]3)ccc2-5)N1C(=O)[C@@H](NC(=O)OC)[C@@H](C)OC [EK, methyl[(2S,3R)-1-{(2S,5S)-2-[5-(2-{(2S,5S)-5-ethyl-1-[N-(methoxycarbonyl)-O-methyl-L-threonyl]pyrrolidin-2-yl}-1,11-dihydroisochromeno[4′,3′:6,7]naphtho[1,2-d]imidazol-9-yl)-1H-imidazol-2-yl]-5-methylpyrrolidin-1-yl}-3-methoxy-1-oxobutan-2-yl]carbamate]	0.173 nM	9.00 to 10.00	0.116 nM	9.00 to 10.00	0.03 nM	> 10.00	9.00 to 10.00	0.238 nM	0.025 nM	> 10.00	10.30	10.47	> 10.00
COC(=O)N[C@H](C(=O)N1[C@@H](C)CC[C@H]1c1ncc(-c2ccc3c(c2)COc2cc4c(ccc5nc([C@@H]6CC[C@H](C)N6C(=O)[C@@H](NC(=O)OC)C6CCCCC6)[nH]c54)cc2-3)[nH]1)C(C)C [HE]	0.074 nM	> 10.00	0.677 nM	9.00 to 10.00	0.017 nM	> 10.00	7.36 to 9.00	1.59 nM	0.014 nM	> 10.00	10.70	10.96	> 10.00
COC(=O)N[C@H](C(=O)N1[C@@H](C)CC[C@H]1c1ncc(-c2ccc3c(c2)COc2cc4c(ccc5nc([C@@H]6CC[C@H](C(C)C)N6C(=O)[C@@H](NC(=O)OC)C6CCOCC6)[nH]c54)cc2-3)[nH]1)C(C)C [ID]	0.801 nM	9.00 to 10.00	0.953 nM	9.00 to 10.00	0.051 nM	> 10.00	7.36 to 9.00	1.81 nM	0.026 nM	> 10.00	10.42	10.46	> 10.00
COC(=O)N[C@H](C(=O)N1[C@@H](C)CC[C@H]1c1nc2ccc3cc4c(cc3c2[nH]1)OCc1cc(-c2cnc([C@@H]3CC[C@H](C)N3C(=O)[C@@H](NC(=O)OC)[C@@H](C)O)[nH]2)ccc1-4)C(C)C [GY]	0.048 nM	> 10.00	0.06 nM	> 10.00	0.013 nM	> 10.00	9.00 to 10.00	0.311 nM	0.015 nM	> 10.00	10.49	10.64	> 10.00
CC[C@H]1CC[C@@H](c2nc3ccc4cc5c(cc4c3[nH]2)OCc2cc(-c3cnc([C@@H]4CC[C@H](C)N4C(=O)[C@@H](NC(=O)OC)C(C)C)[nH]3)ccc2-5)N1C(=O)[C@@H](NC(=O)OC)[C@@H](C)O [GS]	0.271 nM	9.00 to 10.00	0.116 nM	9.00 to 10.00	0.017 nM	> 10.00	9.00 to 10.00	0.372 nM	0.017 nM	> 10.00	10.68	10.74	> 10.00
CC[C@H]1C[C@@H](c2nc3ccc4cc5c(cc4c3[nH]2)OCc2cc(-c3cnc([C@@H]4CC[C@H](C)N4C(=O)[C@@H](NC(=O)OC)C(C)C)[nH]3)ccc2-5)N(C(=O)[C@@H](NC(=O)OC)[C@@H](C)OC)C1 [GU]	0.152 nM	9.00 to 10.00	0.075 nM	> 10.00	0.014 nM	> 10.00	9.00 to 10.00	0.728 nM	0.026 nM	> 10.00	10.66	10.85	> 10.00
COC(=O)N[C@H](C(=O)N1[C@@H](C)CC[C@H]1c1ncc(-c2ccc3c(c2)COc2cc4c(ccc5nc([C@@H]6CC[C@H](C)N6C(=O)[C@@H](NC(=O)OC)C6CC6)[nH]c54)cc2-3)[nH]1)C(C)C [HD]	0.102 nM	9.00 to 10.00	1.39 nM	7.36 to 9.00	0.017 nM	> 10.00	7.36 to 9.00	1.9 nM	0.016 nM	> 10.00	10.77	10.82	> 10.00
CC[C@H]1CC[C@@H](c2nc3ccc4cc5c(cc4c3[nH]2)OCc2cc(-c3cnc([C@@H]4CC[C@H](C)N4C(=O)[C@@H](NC(=O)OC)C(C)C)[nH]3)ccc2-5)N1C(=O)[C@@H](NC(=O)OC)C(C)C [IF]	0.35 nM	9.00 to 10.00	0.84 nM	9.00 to 10.00	0.026 nM	> 10.00	9.00 to 10.00	0.691 nM	0.017 nM	> 10.00	10.68	10.80	> 10.00
